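Cells were grown in 96-well plates and exposed to each compound for 48 hours at five concentrations; endpoints were interpolated linearly between bracketing concentrations, or set to the highest concentration if not reached. The concentration for full growth arrest is given as TGI.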
Columns and labels:
Test in all cases: NCI-60 cell line screen, 48 h
[1] = system: 786-0 renal
[2] = system: HS 578T breast
[3] = system: IGROV1 ovarian
[4] = system: K-562 leukemia
[5] = system: KM12 colon
[6] = system: NCI-H522 lung
[7] = system: OVCAR-5 ovarian
[8] = system: SF-539 CNS
[9] = system: SK-MEL-2 melanoma
[10] = system: UO-31 renal

| Structure (SMILES) | TGI [1] | TGI [2] | TGI [3] | TGI [4] | TGI [5] | TGI [6] | TGI [7] | TGI [8] | TGI [9] | TGI [10] |
| --- | --- | --- | --- | --- | --- | --- | --- | --- | --- | --- |
| S=c1ncc(-c2cncc(-c3cnc(=S)[nH]c3)n2)c[nH]1 | > 100 µM | > 100 µM | > 100 µM | > 100 µM | > 100 µM | > 100 µM | > 100 µM | > 100 µM | > 100 µM | > 100 µM |
| Nc1nc(N)c2nc(CN(C=O)c3ccc(C(=O)O)cc3)cnc2n1 | > 100 µM | > 100 µM | > 100 µM | > 100 µM | > 100 µM | > 100 µM | > 100 µM | > 100 µM | > 100 µM | > 100 µM |
| NC1=Nc2cc(C(F)(F)F)ccc2Sc2nc3ccccc3n21 | > 28.6 µM | > 100 µM | > 100 µM | > 100 µM | > 100 µM | > 71.1 µM | > 100 µM | > 100 µM | > 100 µM | > 100 µM |
| CCOC(=O)C1=C(O)CC(=O)N=C1N1CCCC1 | > 100 µM | > 100 µM | > 100 µM | > 100 µM | > 100 µM | > 100 µM | > 100 µM | > 100 µM | > 100 µM | > 100 µM |
| CC1CC(=O)N(N(C)C)C2(C#N)C(=O)N=C(N)C12C#N (stereo not given) | > 100 µM | > 100 µM | > 100 µM | 59.6 µM | > 100 µM | > 100 µM | > 100 µM | > 100 µM | > 100 µM | > 100 µM |
| CO[C@@]12C[C@H](CNC(=O)c3ccc[nH]3)O[C@@H]1NC(=O)N2 | > 100 µM | > 100 µM | > 100 µM | > 100 µM | > 100 µM | > 100 µM | > 100 µM | > 100 µM | > 100 µM | > 100 µM |
| COC(=O)c1ccccc1CC1Cc2c(C)ccc(C)c2C1=O (stereo not given) | > 100 µM | > 100 µM | > 100 µM | > 100 µM | 76.1 µM | 58.1 µM | > 100 µM | > 100 µM | 38.4 µM | > 100 µM |
| CC(C)=CCC[C@@H](C)C1=C(O)C(N[C@H](C)c2ccccc2)=C(C)C(=O)C1=O | 20.7 µM | 36.7 µM | > 36.2 µM | > 60.7 µM | > 46 µM | 8.67 µM | > 72.1 µM | 10.2 µM | 29.3 µM | 38.9 µM |
| Clc1ccc(-c2cn3c(nc4ccccc43)c(-c3ccccc3)n2)cc1 | 15.2 µM | 66 µM | > 78.3 µM | > 100 µM | > 100 µM | 43.3 µM | > 55.9 µM | > 69 µM | 38.8 µM | > 60 µM |
| Cc1sc(/N=C/C2=C(O)CC(C)(C)CC2=O)nc1-c1ccccc1 | > 100 µM | > 100 µM | > 100 µM | > 100 µM | > 100 µM | > 100 µM | > 100 µM | > 100 µM | > 100 µM | > 100 µM |
| NC(=S)NNCC(=O)CC(O)(C(F)(F)F)C(F)(F)Cl (stereo not given) | > 100 µM | > 100 µM | > 100 µM | > 100 µM | > 100 µM | > 100 µM | > 100 µM | > 100 µM | > 100 µM | > 100 µM |
| O=CN1CCN(c2ccc3ccc(=O)[nH]c3n2)CC1 | > 100 µM | > 100 µM | > 100 µM | > 100 µM | > 100 µM | > 100 µM | > 100 µM | > 100 µM | > 100 µM | > 100 µM |
| COC(=O)c1ccccc1C1CN=NC12Cc1ccc(C)cc1C2=O (stereo not given) | > 100 µM | > 100 µM | > 100 µM | > 100 µM | > 100 µM | > 100 µM | > 100 µM | > 100 µM | > 100 µM | > 100 µM |
| O=C1c2cc3c(cc2NC(c2ccccc2F)C1O)OCO3 (stereo not given) | 48.1 µM | 48.2 µM | > 100 µM | > 100 µM | > 100 µM | 34.4 µM | > 75.9 µM | 35.2 µM | > 100 µM | > 75.8 µM |

From PubChem BioAssay (NCI)
